# Values quoted from earlier work in patent US9474689B2, “Delamination resistant pharmaceutical glass containers containing active pharmaceutical ingredients” (Corning Incorporated, priority 2011, dated 2016).
# Assays:
# [1] = tested on: P. aeruginosa; conditions: against P. aeruginosa
# [2] = tested on: Enterobacteriaceae; conditions: in vitro
# [3] = tested on: soluble and transmembrane forms of TNFα
# [4] = target: T1, TNFβ (lymphotoxin-α) (Homo sapiens, UniProt P01374)
# T1 sequence (P01374 35-205): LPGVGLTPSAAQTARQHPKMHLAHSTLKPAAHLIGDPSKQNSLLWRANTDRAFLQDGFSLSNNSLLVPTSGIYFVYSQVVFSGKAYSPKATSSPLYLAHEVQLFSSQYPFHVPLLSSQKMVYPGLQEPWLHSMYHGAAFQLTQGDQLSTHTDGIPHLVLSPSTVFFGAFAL
# soluble and transmembrane forms of TNFα, sequence (P01375 77-233 limits assumed): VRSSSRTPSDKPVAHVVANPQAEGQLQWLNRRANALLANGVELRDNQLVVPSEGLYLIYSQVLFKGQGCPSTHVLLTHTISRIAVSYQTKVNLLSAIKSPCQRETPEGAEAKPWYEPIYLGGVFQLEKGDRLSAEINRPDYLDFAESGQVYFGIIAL
binding affinity to TNFα [3],Molecule,post-antibiotic effects in vitro [1],protein binding,activity against Enterobacteriaceae [2],neutralization of TNFβ [4]
–,"C[C@@H](O)[C@H]1C(=O)N2C(C(=O)O)=C(S[C@@H]3CN[C@H](CNS(N)(=O)=O)C3)[C@H](C)[C@H]12 [Doripenem, doripenem]",about two hours,low protein binding,excellent activity,–
high affinity,Infliximab: chimeric IgG1κ monoclonal antibody specific for human tumor necrosis factor-alpha,–,–,–,does not neutralize
